Test results published in patent EP4032530B1, “PROLONGED-RELEASE FURAZIDIN COMPOSITION” (Adamed Pharma S.A., priority 2021, dated 2022).

What was measured:
Escherichia coli = details: constant level, unchanged for several decades; cited from earlier work
[1] = Phase I pivotal food effect pharmacokinetic study FUR-PK-03-19 (755/19); assay type: in vivo, human; details: PK phase I studies
Description: Study title: Randomized, open-label, three-period, cross-over, food effect pharmacokinetic study comparing bioavailability of furazidin, prolonged-release tablets, 200 mg having a composition of IR/1+MR/1 according to Example 1 in healthy subjects in different fed conditions.
Aim of the study: The main study objective was to evaluate the pharmacokinetic properties and to compare the bioavailability of the Test product in healthy volunteers under different fed conditions.
Study conduct: In this bioavailability study, the pharmacokinetic profile was tested for the Test formulation (prolonged-release bilayer tablet, IR/1+MR/1) having a strength of 200 mg furazidin. The bioavailability study was carried out under different fed conditions (after a high-protein meal or after a high-fat, high-calorie meal) and in fasting state in 30 healthy subjects. On the day of dosing, the subjects received randomly after an overnight fast a single dose of the modified-release formulation, administered on empty stomach (fasting conditions, Treatment A) or after a high-protein meal (Treatment B) or after a high-fat, high-calorie meal (Treatment C), each time with 240 mL of water. For each subject, there were 3 dosing periods, separated by a washout period of 7 days. […]
The pharmacokinetic data for plasma and urine were statistically analysed in 29 subjects. […]

[2] = upon oral administration; cited from earlier work

O=C1CN(/N=C/C=C/c2ccc([N+](=O)[O-])o2)C(=O)N1 [furazidin]
susceptibility of Escherichia coli to furazidin (Escherichia coli): approx. 90%
site of absorption [1]: mainly absorbed in the upper part of the small intestine
half-life [2]: below 1 hour
